# Values quoted from earlier work, collected in US20130137781A1, “PHARMACEUTICAL PREPARATION FOR CONTROLLING WATER-SOLUBLE DRUG RELEASE” (priority 2010, published 2013).
# How the values were obtained:
# [1] = common logarithm of n-octanol/water partition coefficient
Log P [1],thermal stability in solution state,Structure (SMILES)
0.2,–,NS(=O)(=O)Cc1noc2ccccc12 [zonisamide]
−1.5,–,N[C@@H](Cc1ccccc1)C(=O)O [L-phenylalanine]
−3.2,thermally unstable in solution state,N[C@H](C(=O)O)[C@H](O)c1ccc(O)c(O)c1 [droxidopa]
